According to US6358885B1, “Substituted phenylheterocyclic herbicides” (Mississippi State University, priority 1992, dated 2002):
One block for each compound: values may come before it.

Assays:
[1] = tested on: giant foxtail; assay: Test A preemergence/postemergence greenhouse plant response rating 0 to 10; assay type: in vivo, Setaria faberii; settings: 0 to 10 scale, 0 is no effect, 10 is complete control
Description: (§1) Seeds of barnyardgrass (Echinochchloa crus-galli), cheatgrass (Bromus secalinus), cocklebur (Xanthium pensylvanicum), crabgrass (Digitaria spp.), giant foxtail (Setaria faberii), morningglory (Ipomoea spp.), sorghum (Sorghum bicolor), velvetleaf (Abutilon theophrasti), and wild oat (Avena fatua) were planted into a sandy loam soil and treated preemergence with test chemicals dissolved in a non-phytotoxic solvent. At the same time, these crop and weed species were also treated postemergence with test chemicals. Plants ranged in height from two to eighteen cm and were in the two to three leaf stage for the postemergence treatment. Treated plants and untreated controls were maintained in a greenhouse for approximately eleven days, after which all treated plants were compared to untreated controls and visually evaluated for injury. Plant response ratings, summarized in Table A, are based on a 0 to 10 scale where 0 is no effect and 10 is complete control. A dash (-) response means no test results.

[2] = tested on: cheatgrass; assay: Test A preemergence/postemergence greenhouse plant response rating 0 to 10; assay type: in vivo, Bromus secalinus; settings: 0 to 10 scale, 0 is no effect, 10 is complete control
Description: as §1

[3] = tested on: velvetleaf; assay: as above; assay type: in vivo, Abutilon theophrasti; settings: 0 to 10 scale, 0 is no effect, 10 is complete control
Description: as §1

[4] = tested on: barnyardgrass; assay: as above; assay type: in vivo, Echinochchloa crus-galli; settings: 0 to 10 scale, 0 is no effect, 10 is complete control
Description: as §1

[5] = tested on: sorghum; assay: as above; assay type: in vivo, Sorghum bicolor; settings: 0 to 10 scale, 0 is no effect, 10 is complete control
Description: as §1

[6] = tested on: cocklebur; assay: as above; assay type: in vivo, Xanthium pensylvanicum; settings: 0 to 10 scale, 0 is no effect, 10 is complete control
Description: as §1

[7] = tested on: crabgrass; assay: as above; assay type: in vivo, Digitaria spp.; settings: 0 to 10 scale, 0 is no effect, 10 is complete control
Description: as §1

[8] = tested on: wild oat; assay: as above; assay type: in vivo, Avena fatua; settings: 0 to 10 scale, 0 is no effect, 10 is complete control
Description: as §1

[9] = tested on: morningglory; assay: as above; assay type: in vivo, Ipomoea spp.; settings: 0 to 10 scale, 0 is no effect, 10 is complete control
Description: as §1

[10] = tested on: johnson grass; assay: Test H postemergence greenhouse plant response rating 0 to 10; assay type: in vivo, Sorghum halepense; settings: 0 to 10 scale (0 no effect, 10 complete control)
Description: (§2) Seeds of barnyardgrass (Echinochloa crus-galli), black nightshade (Solanum ptycanthum dunal), cocklebur (Xanthium pensylvanicum), common ragweed (Ambrosia elatior), corn (Zea mays), cotton (Gossypium hirsutam), crabgrass (Digitaria spp.), giant foxtail (Setaria faberii), jimsonweed (Datura stramonium), johnson grass (Sorghum halepense), morningglory (Ipomoea spp.), smartweed (Polygonum pensylvanicum), soybean (Glycine max), velvetleaf (Abutilon theophrasti) and purple nutsedge (Cyperus rotundus) tubers were planted into a silt loam soil. These crops and weeds were grown in the greenhouse until the plants ranged in height from two to eighteen cm (one to four leaf stage), then treated postemergence with the test chemicals dissolved in a non-phytotoxic solvent. Pots receiving these postemergence treatments were placed in the greenhouse and maintained according to routine greenhouse procedures. Treated plants and untreated controls were maintained in the greenhouse approximately 21 days after application of the test compound. Visual evaluations of plant injury responses were then recorded.

[11] = tested on: barnyardgrass; assay: as above; assay type: in vivo, Echinochloa crus-galli; settings: 0 to 10 scale (0 no effect, 10 complete control)
Description: as §2

[12] = tested on: black nightshade; assay: as above; assay type: in vivo, Solanum ptycanthum dunal; settings: 0 to 10 scale (0 no effect, 10 complete control)
Description: as §2

[13] = tested on: soybean; assay: as above; assay type: in vivo, Glycine max; settings: 0 to 10 scale (0 no effect, 10 complete control)
Description: as §2

[14] = tested on: smartweed; assay: as above; assay type: in vivo, Polygonum pensylvanicum; settings: 0 to 10 scale (0 no effect, 10 complete control)
Description: as §2

[15] = tested on: common ragweed; assay: as above; assay type: in vivo, Ambrosia elatior; settings: 0 to 10 scale (0 no effect, 10 complete control)
Description: as §2

[16] = tested on: cocklebur; assay: as above; assay type: in vivo, Xanthium pensylvanicum; settings: 0 to 10 scale (0 no effect, 10 complete control)
Description: as §2

[17] = tested on: corn; assay: as above; assay type: in vivo, Zea mays; settings: 0 to 10 scale (0 no effect, 10 complete control)
Description: as §2

[18] = tested on: giant foxtail; assay: as above; assay type: in vivo, Setaria faberii; settings: 0 to 10 scale (0 no effect, 10 complete control)
Description: as §2

[19] = tested on: crabgrass; assay: as above; assay type: in vivo, Digitaria spp.; settings: 0 to 10 scale (0 no effect, 10 complete control)
Description: as §2

[20] = tested on: morningglory; assay: as above; assay type: in vivo, Ipomoea spp.; settings: 0 to 10 scale (0 no effect, 10 complete control)
Description: as §2

[21] = tested on: jimsonweed; assay: as above; assay type: in vivo, Datura stramonium; settings: 0 to 10 scale (0 no effect, 10 complete control)
Description: as §2

[22] = tested on: velvetleaf; assay: as above; assay type: in vivo, Abutilon theophrasti; settings: 0 to 10 scale (0 no effect, 10 complete control)
Description: as §2

[23] = tested on: cotton; assay: as above; assay type: in vivo, Gossypium hirsutam; settings: 0 to 10 scale (0 no effect, 10 complete control)
Description: as §2

[24] = tested on: purple nutsedge; assay: as above; assay type: in vivo, Cyperus rotundus; settings: 0 to 10 scale (0 no effect, 10 complete control)
Description: as §2

- melting point: 104 to 105 °C
SMILES: Clc1ccc(-c2nc3n(c2Cl)CCC=C3)c(Cl)c1 [Compound 1]
- Plant response rating, Giant foxtail ([1]; POSTEMERGENCE, Rate 1000 g/ha): 4
- Plant response rating, Giant foxtail ([1]; PREEMERGENCE, Rate 1000 g/ha): 5
- Plant response rating, Cheatgrass ([2]; POSTEMERGENCE, Rate 1000 g/ha): 4
- Plant response rating, Cheatgrass ([2]; PREEMERGENCE, Rate 1000 g/ha): 0
- Plant response rating, Velvetleaf ([3]; POSTEMERGENCE, Rate 1000 g/ha): 10
- Plant response rating, Velvetleaf ([3]; PREEMERGENCE, Rate 1000 g/ha): 8
- Plant response rating, Barnyardgrass ([4]; POSTEMERGENCE, Rate 1000 g/ha): 5
- Plant response rating, Barnyardgrass ([4]; PREEMERGENCE, Rate 1000 g/ha): 2
- Plant response rating, Sorghum ([5]; POSTEMERGENCE, Rate 1000 g/ha): 4
- Plant response rating, Sorghum ([5]; PREEMERGENCE, Rate 1000 g/ha): 0
- Plant response rating, Cocklebur ([6]; POSTEMERGENCE, Rate 1000 g/ha): 8
- Plant response rating, Cocklebur ([6]; PREEMERGENCE, Rate 1000 g/ha): 0
- Plant response rating, Crabgrass ([7]; POSTEMERGENCE, Rate 1000 g/ha): 5
- Plant response rating, Crabgrass ([7]; PREEMERGENCE, Rate 1000 g/ha): 0
- Plant response rating, Wild oats ([8]; POSTEMERGENCE, Rate 1000 g/ha): 3
- Plant response rating, Wild oats ([8]; PREEMERGENCE, Rate 1000 g/ha): 0
- Plant response rating, Morningglory ([9]; POSTEMERGENCE, Rate 1000 g/ha): 10
- Plant response rating, Morningglory ([9]; PREEMERGENCE, Rate 1000 g/ha): 0

SMILES: Clc1ccc(-c2nc3n(c2Br)CCCC3)c(Cl)c1 [Compound 2]
- Plant response rating, Giant foxtail ([1]; POSTEMERGENCE, Rate 2000 g/ha): 9
- Plant response rating, Giant foxtail ([1]; PREEMERGENCE, Rate 2000 g/ha): 10
- Plant response rating, Cheatgrass ([2]; POSTEMERGENCE, Rate 2000 g/ha): 7
- Plant response rating, Cheatgrass ([2]; PREEMERGENCE, Rate 2000 g/ha): 6
- Plant response rating, Velvetleaf ([3]; POSTEMERGENCE, Rate 2000 g/ha): 10
- Plant response rating, Velvetleaf ([3]; PREEMERGENCE, Rate 2000 g/ha): 10
- Plant response rating, Barnyardgrass ([4]; POSTEMERGENCE, Rate 2000 g/ha): 9
- Plant response rating, Barnyardgrass ([4]; PREEMERGENCE, Rate 2000 g/ha): 9
- Plant response rating, Sorghum ([5]; POSTEMERGENCE, Rate 2000 g/ha): 6
- Plant response rating, Sorghum ([5]; PREEMERGENCE, Rate 2000 g/ha): 8
- Plant response rating, Cocklebur ([6]; POSTEMERGENCE, Rate 2000 g/ha): 10
- Plant response rating, Cocklebur ([6]; PREEMERGENCE, Rate 2000 g/ha): 0
- Plant response rating, Crabgrass ([7]; POSTEMERGENCE, Rate 2000 g/ha): 7
- Plant response rating, Crabgrass ([7]; PREEMERGENCE, Rate 2000 g/ha): 8
- Plant response rating, Wild oats ([8]; POSTEMERGENCE, Rate 2000 g/ha): 5
- Plant response rating, Wild oats ([8]; PREEMERGENCE, Rate 2000 g/ha): 5
- Plant response rating, Morningglory ([9]; POSTEMERGENCE, Rate 2000 g/ha): 10
- Plant response rating, Morningglory ([9]; PREEMERGENCE, Rate 2000 g/ha): 2

SMILES: C#CCN1C(=O)COc2cc(F)c(-c3nn4c(c3Cl)CCCC4)cc21 [Compound 34]
- Johnson Grass plant response rating ([10]; Rate 4 g/ha): 0
- Johnson Grass plant response rating ([10]; Rate 8 g/ha): 0
- Johnson Grass plant response rating ([10]; Rate 16 g/ha): 0
- Barnyardgrass plant response rating ([11]; Rate 4 g/ha): 0
- Barnyardgrass plant response rating ([11]; Rate 8 g/ha): 0
- Barnyardgrass plant response rating ([11]; Rate 16 g/ha): 0
- Black Nightshade plant response rating ([12]; Rate 4 g/ha): 5
- Black Nightshade plant response rating ([12]; Rate 8 g/ha): 10
- Black Nightshade plant response rating ([12]; Rate 16 g/ha): 10
- Soybean plant response rating ([13]; Rate 4 g/ha): 7
- Soybean plant response rating ([13]; Rate 8 g/ha): 7
- Soybean plant response rating ([13]; Rate 16 g/ha): 10
- Smartweed plant response rating ([14]; Rate 4 g/ha): 5
- Smartweed plant response rating ([14]; Rate 8 g/ha): 7
- Smartweed plant response rating ([14]; Rate 16 g/ha): 8
- Common Ragweed plant response rating ([15]; Rate 4 g/ha): 0
- Common Ragweed plant response rating ([15]; Rate 8 g/ha): 1
- Common Ragweed plant response rating ([15]; Rate 16 g/ha): 2
- Cocklebur plant response rating ([16]; Rate 4 g/ha): 5
- Cocklebur plant response rating ([16]; Rate 8 g/ha): 10
- Cocklebur plant response rating ([16]; Rate 16 g/ha): 10
- Corn G4689A plant response rating ([17]; Rate 4 g/ha): 1
- Corn G4689A plant response rating ([17]; Rate 8 g/ha): 1
- Corn G4689A plant response rating ([17]; Rate 16 g/ha): 2
- Giant Foxtail plant response rating ([18]; Rate 4 g/ha): 0
- Giant Foxtail plant response rating ([18]; Rate 8 g/ha): 0
- Giant Foxtail plant response rating ([18]; Rate 16 g/ha): 0
- Crabgrass plant response rating ([19]; Rate 4 g/ha): 0
- Crabgrass plant response rating ([19]; Rate 8 g/ha): 0
- Crabgrass plant response rating ([19]; Rate 16 g/ha): 0
- Morningglory plant response rating ([20]; Rate 4 g/ha): 10
- Morningglory plant response rating ([20]; Rate 8 g/ha): 10
- Morningglory plant response rating ([20]; Rate 16 g/ha): 10
- Jimson weed plant response rating ([21]; Rate 4 g/ha): 10
- Jimson weed plant response rating ([21]; Rate 8 g/ha): 10
- Jimson weed plant response rating ([21]; Rate 16 g/ha): 10
- Velvetleaf plant response rating ([22]; Rate 4 g/ha): 10
- Velvetleaf plant response rating ([22]; Rate 8 g/ha): 10
- Velvetleaf plant response rating ([22]; Rate 16 g/ha): 10
- Cotton plant response rating ([23]; Rate 4 g/ha): 10
- Cotton plant response rating ([23]; Rate 8 g/ha): 10
- Cotton plant response rating ([23]; Rate 16 g/ha): 10
- Nutsedge plant response rating ([24]; Rate 4 g/ha): 0
- Nutsedge plant response rating ([24]; Rate 8 g/ha): 0
- Nutsedge plant response rating ([24]; Rate 16 g/ha): 0
